In ChEMBL document CHEMBL1201861, “Genomics of Drug Sensitity in Cancer screening data, Wellcome Trust Sanger Institute”:

Experiments:
Assay in all cases: cells
[1] = test system: RS4-11; format: functional, cell-based, Homo sapiens; conditions: Homo sapiens, RS4-11;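 further: growth inhibition of RS4-11 cells, read out by a cell viability assay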
Description: SANGER: Inhibition of human RS4-11 cell growth in a cell viability assay.

[2] = test system: SJSA-1; format: functional, cell-based, Homo sapiens; conditions: Homo sapiens, SJSA-1;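 further: growth inhibition of human SJSA-1 cells, read out through a cell viability measurement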
Description: SANGER: Inhibition of human SJSA-1 cell growth in a cell viability assay.

[3] = test system: MZ1-PC; format: functional, cell-based, Homo sapiens; conditions: Homo sapiens, MZ1-PC;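 further: cell viability assay measuring growth inhibition of human MZ1-PC cells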
Description: SANGER: Inhibition of human MZ1-PC cell growth in a cell viability assay.

[4] = test system: MZ7-mel; format: functional, cell-based, Homo sapiens; conditions: Homo sapiens, MZ7-mel;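 further: growth inhibition of human MZ7-mel cells, measured by a cell viability assay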
Description: SANGER: Inhibition of human MZ7-mel cell growth in a cell viability assay.

[5] = test system: A498; format: functional, cell-based, Homo sapiens; conditions: Homo sapiens, A498;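 further: growth inhibition of human A498 cells, read out with a cell viability assay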
Description: SANGER: Inhibition of human A498 cell growth in a cell viability assay.

[6] = test system: SK-MEL-2; format: functional, cell-based, Homo sapiens; conditions: Homo sapiens, SK-MEL-2;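 further: growth inhibition of human SK-MEL-2 cells measured with a cell viability assay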
Description: SANGER: Inhibition of human SK-MEL-2 cell growth in a cell viability assay.

[7] = test system: NB5; format: functional, cell-based, Homo sapiens; conditions: Homo sapiens, NB5;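 further: growth inhibition of NB5 cells, read out as cell viability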
Description: SANGER: Inhibition of human NB5 cell growth in a cell viability assay.

[8] = test system: TE-9; format: functional, cell-based, Homo sapiens; conditions: Homo sapiens, TE-9;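 further: cell growth inhibition, measured with a cell viability readout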
Description: SANGER: Inhibition of human TE-9 cell growth in a cell viability assay.

[9] = test system: DMS-79; format: functional, cell-based, Homo sapiens; conditions: Homo sapiens, DMS-79;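 further: growth inhibition measured with a cell viability assay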
Description: SANGER: Inhibition of human DMS-79 cell growth in a cell viability assay.

[10] = test system: Ramos-2G6-4C10; format: functional, cell-based, Homo sapiens; conditions: Homo sapiens, Ramos-2G6-4C10;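 further: growth inhibition of the cell line, measured by a cell viability read-out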
Description: SANGER: Inhibition of human Ramos-2G6-4C10 cell growth in a cell viability assay.

[11] = test system: RXF 393; format: functional, cell-based, Homo sapiens; conditions: Homo sapiens, RXF 393;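 further: growth inhibition of human RXF 393 cells, read out with a cell viability assay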
Description: SANGER: Inhibition of human RXF393 cell growth in a cell viability assay.

[12] = test system: NCI-H446; format: functional, cell-based, Homo sapiens; conditions: Homo sapiens, NCI-H446;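 further: growth inhibition of NCI-H446 cells determined by a cell viability assay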
Description: SANGER: Inhibition of human NCI-H446 cell growth in a cell viability assay.

[13] = test system: SW684; format: functional, cell-based, Homo sapiens; conditions: Homo sapiens, SW684;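 further: growth inhibition of human SW684 cells, measured by a cell viability assay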
Description: SANGER: Inhibition of human SW684 cell growth in a cell viability assay.

[14] = test system: SK-PN-DW; format: functional, cell-based, Homo sapiens; conditions: Homo sapiens, SK-PN-DW;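 further: growth inhibition measured with a viability assay on these cells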
Description: SANGER: Inhibition of human SK-PN-DW cell growth in a cell viability assay.

[15] = test system: TE-6; format: functional, cell-based, Homo sapiens; conditions: Homo sapiens, TE-6;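 further: growth inhibition of TE-6 cells, read out with a cell viability assay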
Description: SANGER: Inhibition of human TE-6 cell growth in a cell viability assay.

[16] = test system: NCI-H69; format: functional, cell-based, Homo sapiens; conditions: Homo sapiens, NCI-H69;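 further: growth inhibition of the cell line, read out with a cell viability assay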
Description: SANGER: Inhibition of human NCI-H69 cell growth in a cell viability assay.

[17] = test system: HT; format: functional, cell-based, Homo sapiens; conditions: Homo sapiens, HT
Description: SANGER: Inhibition of human HT cell growth in a cell viability assay.

[18] = test system: DB; format: functional, cell-based, Homo sapiens; conditions: Homo sapiens, DB
Description: SANGER: Inhibition of human DB cell growth in a cell viability assay.

[19] = test system: U-87 MG; format: functional, cell-based, Homo sapiens, U-87MG ATCC; conditions: Homo sapiens, U-87 MG;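 further: growth inhibition of the cells measured with a viability assay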
Description: SANGER: Inhibition of human U-87-MG cell growth in a cell viability assay.

[20] = test system: NH-12; format: functional, cell-based, Homo sapiens; conditions: Homo sapiens, NH-12;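 further: growth inhibition of NH-12 cells, read out with a cell viability assay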
Description: SANGER: Inhibition of human NH-12 cell growth in a cell viability assay.

[21] = test system: HT-144; format: functional, cell-based, Homo sapiens; conditions: Homo sapiens, HT-144
Description: SANGER: Inhibition of human HT-144 cell growth in a cell viability assay.

[22] = test system: D-247MG; format: functional, cell-based, Homo sapiens; conditions: Homo sapiens, D-247MG
Description: SANGER: Inhibition of human D-247MG cell growth in a cell viability assay.

[23] = test system: D-263MG; format: functional, cell-based, Homo sapiens; conditions: Homo sapiens, D-263MG
Description: SANGER: Inhibition of human D-263MG cell growth in a cell viability assay.

[24] = test system: NB10; format: functional, cell-based, Homo sapiens; conditions: Homo sapiens, NB10;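 further: growth inhibition of NB10 cells, read out by a cell viability assay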
Description: SANGER: Inhibition of human NB10 cell growth in a cell viability assay.

[25] = test system: NCI-H2126; format: functional, cell-based, Homo sapiens; conditions: Homo sapiens, NCI-H2126;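 further: growth inhibition of the cancer cell line, determined with a cell viability readout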
Description: SANGER: Inhibition of human NCI-H2126 cell growth in a cell viability assay.

[26] = test system: Calu-6; format: functional, cell-based, Homo sapiens; conditions: Homo sapiens, Calu-6;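 further: growth of human Calu-6 cells, read out by a cell viability assay, IC50 marking inhibition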
Description: SANGER: Inhibition of human Calu-6 cell growth in a cell viability assay.

[27] = test system: ACN; format: functional, cell-based, Homo sapiens; conditions: Homo sapiens, ACN;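 further: growth inhibition of the human ACN cell line, read out via cell viability testing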
Description: SANGER: Inhibition of human ACN cell growth in a cell viability assay.

[28] = test system: DU-4475; format: functional, cell-based, Homo sapiens; conditions: Homo sapiens, DU-4475
Description: SANGER: Inhibition of human DU-4475 cell growth in a cell viability assay.

[29] = test system: NCI-H226; format: functional, cell-based, Homo sapiens; conditions: Homo sapiens, NCI-H226;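 further: cell viability read-out used to gauge growth inhibition of the cells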
Description: SANGER: Inhibition of human NCI-H226 cell growth in a cell viability assay.

[30] = test system: HEL; format: functional, cell-based, Homo sapiens; conditions: Homo sapiens, HEL;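 further: growth inhibition of HEL cells, read out with a cell viability assay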
Description: SANGER: Inhibition of human HEL cell growth in a cell viability assay.

[31] = test system: JAR; format: functional, cell-based, Homo sapiens; conditions: Homo sapiens, JAR;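 further: growth inhibition of human JAR cells determined with a cell viability assay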
Description: SANGER: Inhibition of human JAR cell growth in a cell viability assay.

[32] = test system: SCH; format: functional, cell-based, Homo sapiens; conditions: Homo sapiens, SCH;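 further: growth inhibition of human SCH cells, read out in a cell viability assay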
Description: SANGER: Inhibition of human SCH cell growth in a cell viability assay.

[33] = test system: NCI-H1092; format: functional, cell-based, Homo sapiens; conditions: Homo sapiens, NCI-H1092;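 further: cell growth inhibition measured with a cell viability assay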
Description: SANGER: Inhibition of human NCI-H1092 cell growth in a cell viability assay.

[34] = test system: AM-38; format: functional, cell-based, Homo sapiens; conditions: Homo sapiens, AM-38;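 further: growth inhibition of AM-38 cells of human origin, read out by a cell viability assay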
Description: SANGER: Inhibition of human AM-38 cell growth in a cell viability assay.

[35] = test system: HCC2218; format: functional, cell-based, Homo sapiens; conditions: Homo sapiens, HCC2218;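 further: cell viability assay read-out, with IC50 given as the concentration that inhibits growth of the cell line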
Description: SANGER: Inhibition of human HCC2218 cell growth in a cell viability assay.

[36] = test system: SNU-5; format: functional, cell-based, Homo sapiens; conditions: Homo sapiens, SNU-5;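 further: cell viability readout used to measure growth inhibition in human NCI-SNU-5 cells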
Description: SANGER: Inhibition of human NCI-SNU-5 cell growth in a cell viability assay.

[37] = test system: Becker; format: functional, cell-based, Homo sapiens; conditions: Homo sapiens, Becker;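 further: growth inhibition of Becker cells, read out with a cell viability assay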
Description: SANGER: Inhibition of human Becker cell growth in a cell viability assay.

[38] = test system: LNCaP-Clone-FGC; format: functional, cell-based, Homo sapiens; conditions: Homo sapiens, LNCaP-Clone-FGC
Description: SANGER: Inhibition of human LNCaP-Clone-FGC cell growth in a cell viability assay.

[39] = test system: TE-10; format: functional, cell-based, Homo sapiens; conditions: Homo sapiens, TE-10;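 further: growth inhibition of TE-10 cells, measured by a cell viability assay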
Description: SANGER: Inhibition of human TE-10 cell growth in a cell viability assay.

[40] = test system: LC-2-ad; format: functional, cell-based, Homo sapiens; conditions: Homo sapiens, LC-2-ad;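 further: growth inhibition of human LC-2-ad cells, read out with a cell viability assay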
Description: SANGER: Inhibition of human LC-2-ad cell growth in a cell viability assay.

[41] = test system: EW-1; format: functional, cell-based, Homo sapiens; conditions: Homo sapiens, EW-1;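 further: growth inhibition of the human EW-1 cell line, read out by a cell viability assay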
Description: SANGER: Inhibition of human EW-1 cell growth in a cell viability assay.

[42] = test system: SK-LMS-1; format: functional, cell-based, Homo sapiens; conditions: Homo sapiens, SK-LMS-1;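 further: growth inhibition of human SK-LMS-1 cells, read out with a cell viability assay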
Description: SANGER: Inhibition of human SK-LMS-1 cell growth in a cell viability assay.

[43] = test system: C8166; format: functional, cell-based, Homo sapiens; conditions: Homo sapiens, C8166;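 further: growth inhibition of human C8166 cells measured by a cell viability assay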
Description: SANGER: Inhibition of human C8166 cell growth in a cell viability assay.

[44] = test system: BT-474; format: functional, cell-based, Homo sapiens; conditions: Homo sapiens, BT-474
Description: SANGER: Inhibition of human BT-474 cell growth in a cell viability assay.

[45] = test system: HuTu80; format: functional, cell-based, Homo sapiens, HUTU-80; conditions: Homo sapiens, HuTu80;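 further: growth inhibition of HuTu80 human cells, determined with a cell viability readout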
Description: SANGER: Inhibition of human HUTU-80 cell growth in a cell viability assay.

[46] = test system: LB996-RCC; format: functional, cell-based, Homo sapiens; conditions: Homo sapiens, LB996-RCC
Description: SANGER: Inhibition of human LB996-RCC cell growth in a cell viability assay.

[47] = test system: UACC-257; format: functional, cell-based, Homo sapiens; conditions: Homo sapiens, UACC-257
Description: SANGER: Inhibition of human UACC-257 cell growth in a cell viability assay.

[48] = test system: KM12; format: functional, cell-based, Homo sapiens; conditions: Homo sapiens, KM12;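 further: KM12 cell growth inhibition, read out with a cell viability assay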
Description: SANGER: Inhibition of human KM12 cell growth in a cell viability assay.

[49] = test system: QIMR-WIL; format: functional, cell-based, Homo sapiens; conditions: Homo sapiens, QIMR-WIL;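 further: growth inhibition of QIMR-WIL cells, read out with a cell viability assay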
Description: SANGER: Inhibition of human QIMR-WIL cell growth in a cell viability assay.

OCCCNc1cc(-c2ccnc(Nc3cccc(Cl)c3)n2)ccn1
IC50 [1]: 69.6 nM
IC50 [2]: 60.7 nM
IC50 [3]: 42.7 nM
IC50 [4]: > 256 nM
IC50 [5]: > 256 nM
IC50 [6]: > 256 nM
IC50 [7]: > 256 nM
IC50 [8]: > 256 nM
IC50 [9]: > 256 nM
IC50 [10]: 59.3 nM
IC50 [11]: 37 nM
IC50 [12]: > 256 nM
IC50 [13]: > 256 nM
IC50 [14]: 90.2 nM
IC50 [15]: > 256 nM
IC50 [16]: > 256 nM
IC50 [17]: 66.2 nM
IC50 [18]: 138 nM
IC50 [19]: > 256 nM
IC50 [20]: > 256 nM
IC50 [21]: 20.6 nM
IC50 [22]: > 256 nM
IC50 [23]: > 256 nM
IC50 [24]: > 256 nM
IC50 [25]: > 256 nM
IC50 [26]: > 256 nM
IC50 [27]: 165 nM
IC50 [28]: 140 nM
IC50 [29]: 213 nM
IC50 [30]: 114 nM
IC50 [31]: 81.8 nM
IC50 [32]: > 256 nM
IC50 [33]: 108 nM
IC50 [34]: > 256 nM
IC50 [35]: > 256 nM
IC50 [36]: > 256 nM
IC50 [37]: 47.9 nM
IC50 [38]: > 256 nM
IC50 [39]: 38.2 nM
IC50 [40]: 16.6 nM
IC50 [41]: 45.8 nM
IC50 [42]: 135 nM
IC50 [43]: > 256 nM
IC50 [44]: > 256 nM
IC50 [45]: 20.2 nM
IC50 [46]: 32.5 nM
IC50 [47]: > 256 nM
IC50 [48]: 124 nM
IC50 [49]: 48.8 nM

COc1cc(N2CCN(C)CC2)ccc1Nc1ncc2c(n1)N(C)c1ccccc1C(=O)N2C
IC50 [1]: 3420 nM
IC50 [2]: > 8000 nM
IC50 [3]: > 8000 nM
IC50 [4]: 7540 nM
IC50 [5]: > 8000 nM
IC50 [6]: > 8000 nM
IC50 [7]: > 8000 nM
IC50 [8]: > 8000 nM
IC50 [9]: > 8000 nM
IC50 [10]: 5670 nM
IC50 [11]: > 8000 nM
IC50 [12]: > 8000 nM
IC50 [13]: > 8000 nM
IC50 [14]: > 8000 nM
IC50 [15]: > 8000 nM
IC50 [16]: > 8000 nM
IC50 [17]: > 8000 nM
IC50 [18]: > 8000 nM
IC50 [19]: > 8000 nM
IC50 [20]: > 8000 nM
IC50 [21]: > 8000 nM
IC50 [22]: 1580 nM
IC50 [23]: > 8000 nM
IC50 [24]: > 8000 nM
IC50 [25]: > 8000 nM
IC50 [26]: > 8000 nM
IC50 [27]: > 8000 nM
IC50 [28]: > 8000 nM
IC50 [29]: > 8000 nM
IC50 [30]: 5950 nM
IC50 [31]: > 8000 nM
IC50 [32]: > 8000 nM
IC50 [33]: > 8000 nM
IC50 [34]: > 8000 nM
IC50 [35]: > 8000 nM
IC50 [36]: > 8000 nM
IC50 [37]: 7460 nM
IC50 [38]: > 8000 nM
IC50 [39]: 6890 nM
IC50 [40]: > 8000 nM
IC50 [41]: 3840 nM
IC50 [42]: > 8000 nM
IC50 [43]: > 8000 nM
IC50 [44]: > 8000 nM
IC50 [45]: > 8000 nM
IC50 [46]: 5370 nM
IC50 [47]: 7110 nM
IC50 [48]: > 8000 nM
IC50 [49]: 6320 nM
